Experimental data taken from US20220170096A1, “INTERLEUKIN-4-INDUCED GENE 1 (IL4I1) AS A BIOMARKER AND USES THEREOF” (DEUTSCHES KREBSFORSCHUNGSZENTRUM STIFTUNG DES OEFFENTLICHEN …, priority 2019, published 2022).

Assays:
[1] = Conversion of I3P to kynurenic acid in PBS with or without H2O2 (HPLC); assay type: physicochemical; settings: 3.33 mg/mL I3P in PBS, 24 h, with or without 1 mM H2O2
Procedure: Black, lowest peak: 3.33 mg/mL I3P in phosphate buffered saline (PBS) incubated for 24 h. Grey peak: 3.33 mg/mL I3P incubated in PBS in the presence of 1 mM H2O2 for 24 h (n=2). c-e, TIPARP mRNA expression in U-87MG cells treated with IAA (c), ILA (d), I3CA (e) or vehicle for 24 h (n=3). f, TIPARP mRNA expression in shCtrl and shAHR U-87MG cells treated with 50 μM KynA or vehicle for 24 h (n=3). g, Representative images of GFP-Ahr expressing tao BpRc1c cells treated with either vehicle or 50 μM KynA for 1 h. n values represent independent experiments. Data are presented as mean±S.E.M and were analyzed by two-tailed paired student's t-test (a, b, h) or repeated measures ANOVA with Dunnett's multiple comparisons test (c, e-g). *P<0.05, **P<0.01, ***P<0.001, ****P<0.0001. n.s., not significant.

U-87MG cells = assay: Metabolites in supernatants of U-87MG cells treated with I3P; assay type: cell-based, human; settings: increasing concentrations of I3P, 24 h
Procedure: For treatment of adherent cells with established and hypothetical AHR ligands, 4×10^5 cells per well were seeded in six well plates and incubated for 24 h prior to treatment. Non-adherent cells were seeded in 24 well plates at 5×10^5 cells in 1 mL and treated immediately. For verification of the generated AHR signature, cells were treated with the established AHR agonist Kyn (50 μM, SigmaAldrich, K8625) for 24 h. In order to investigate the potential of direct and downstream IL4I1 metabolites to activate the AHR, cells were treated with […] When using the AHR antagonist SR1 (1 μM, Merck Millipore, 182706), cells were treated for 24 h alone or in combination with AHR ligands. […] Consumption of phenylalanine, tyrosine and Trp by IL4I1-expressing and non-expressing U-87MG and U-251MG cells was assessed by quantification of the amino acids in the cell culture supernatants after 120 h incubation. […] The derivatization product was separated at 42° C. on an Acquity BEH C18 column (Waters) using an Acquity H-class UPLC system (Waters) coupled to an Acquity fluorescence detector (FLR) (Waters). Samples were analyzed on the UPLC as described before by Yang et. al., 2015^21. […] Trp was detected by fluorescence (Acquity FLR detector, Waters, excitation: 254 nm, emission: 401 nm). Standards were used for quantification (Sigma). […] For targeted quantification of the metabolites, MRM mode was used. […]

GFP-tagged Ahr = biological target: T1, GFP-tagged Ahr (Mus musculus, UniProt P30561); assay: AHR nuclear translocation assay in GFP-Ahr expressing tao BpRc1c cells; assay type: cell-based, murine; settings: 25 μM, 4 h
T1 construct: expressed in transfected cells; host or cells: murine hepatoma tao BpRc1 cells (deficient of endogenous Ahr), retroviral transfection, tet-off system
T1 sequence (P30561 10-848): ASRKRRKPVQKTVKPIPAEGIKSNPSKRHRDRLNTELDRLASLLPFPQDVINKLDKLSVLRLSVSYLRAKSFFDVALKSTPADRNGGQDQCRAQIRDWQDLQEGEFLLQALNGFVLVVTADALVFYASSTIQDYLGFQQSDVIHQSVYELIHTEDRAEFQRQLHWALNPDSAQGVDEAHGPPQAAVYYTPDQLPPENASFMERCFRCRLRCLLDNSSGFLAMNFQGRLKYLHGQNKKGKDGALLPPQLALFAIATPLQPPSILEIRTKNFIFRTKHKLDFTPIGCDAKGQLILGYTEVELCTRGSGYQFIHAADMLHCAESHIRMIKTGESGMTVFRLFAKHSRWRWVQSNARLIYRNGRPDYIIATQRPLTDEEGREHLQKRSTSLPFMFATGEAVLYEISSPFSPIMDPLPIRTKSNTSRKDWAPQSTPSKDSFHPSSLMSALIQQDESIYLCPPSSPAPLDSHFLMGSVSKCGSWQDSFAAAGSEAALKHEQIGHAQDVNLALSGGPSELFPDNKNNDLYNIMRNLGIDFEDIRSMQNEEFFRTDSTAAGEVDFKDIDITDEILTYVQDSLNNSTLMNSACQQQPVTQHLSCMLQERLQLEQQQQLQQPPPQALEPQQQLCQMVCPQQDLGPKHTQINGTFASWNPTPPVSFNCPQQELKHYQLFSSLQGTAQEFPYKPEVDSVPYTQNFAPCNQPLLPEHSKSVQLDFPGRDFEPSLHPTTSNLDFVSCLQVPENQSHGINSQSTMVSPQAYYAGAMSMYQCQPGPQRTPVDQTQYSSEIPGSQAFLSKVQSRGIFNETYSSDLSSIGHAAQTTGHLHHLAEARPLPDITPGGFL
Procedure: Stably transfected tao BpRc1c cells, expressing a GFP-tagged Ahr under tetracycline control, were used to visualize nuclear translocation of Ahr.
For induction of GFP-Ahr expression in the transgenic tao BpRc1c cells, cells were taken off tetracycline 24 h before translocation assays. Assays were performed in black clear bottom 96-well plates (BD, #353219) with 7500 cells/well in 150 μl/well. Metabolites were added in 50 μL/well induction medium. Cells were exposed for 4h to 25 μM PP, HPP, and I3P respectively. Medium was discarded and cells fixed with pre-warmed 3.7% formaldehyde in PBS (10 min at RT). After fixation cells were washed with detergent buffer (DB, 0.01% Tween20 in PBS, Sigma Aldrich), followed by permeabilization with 0.1% Triton X-100 in PBS (Sigma Aldrich) for 15 min at RT. Cells were washed twice with DB and incubated with 0.4 ng/ml Hoechst 33342 (Sigma Aldrich) for 30 min at RT protected from light. After washing with DB and PBS cells were stored in PBS at 4° C. until translocation analysis. Translocation by KynA was monitored by live cell imaging after 3 h of exposure including the appropriate negative medium control. Translocation of Ahr by the different metabolites was monitored on a BD Pathway Imager 855.

AHR = AHR target gene expression (microarray, qRT-PCR) in glioblastoma cells treated with IL4I1 metabolites; assay type: cell-based, human; settings: U-87MG cells; for modulation of AHR target genes / AHR activation signature genes: 40 μM for 24 h (microarray), TIPARP mRNA 24 h; for induction of the AHR target gene TIPARP (mRNA): 24 h, KynA 50 μM
Procedure: Array datasets—The affymetrix microarray chips “human gene 2.0 ST” were analyzed using the oligo package and annotated using NetAffx (14). Raw CEL files were RMA normalized and summarized. Differential gene expression was performed using the limma pipeline for microarrays (15).
For treatment of adherent cells with established and hypothetical AHR ligands, 4×10^5 cells per well were seeded in six well plates and incubated for 24 h prior to treatment. Non-adherent cells were seeded in 24 well plates at 5×10^5 cells in 1 mL and treated immediately. For verification of the generated AHR signature, cells were treated with the established AHR agonist Kyn (50 μM, SigmaAldrich, K8625) for 24 h. […] When using the AHR antagonist SR1 (1 μM, Merck Millipore, 182706), cells were treated for 24 h alone or in combination with AHR ligands.
Total RNA was harvested from cultured cells using the RNeasy Mini Kit (Qiagen, 80204) followed by cDNA synthesis using the High Capacity cDNA reverse transcriptase kit (Applied Biosystems, 4368813). A StepOne Plus real-time PCR system (Applied Biosystems) was used to perform real-time PCR of cDNA samples using SYBR Select Master mix (Thermo Scientific, 4309155). Data was processed and analysed using the StepOne Software v 2.3. Relative quantification of target genes was done against RNA18S as reference gene using the […] method.

IAA, I3CA and kynurenic acid in the cell supernatants after treatment (U-87MG cells) | nuclear translocation of the AHR (GFP-tagged Ahr) | SMILES | formation of kynurenic acid from I3P [1] | modulation of AHR target genes / AHR activation signature genes (AHR) | induction of the AHR target gene TIPARP (mRNA) (AHR)
dose-dependent increase | observed only in response to I3P | O=C(O)C(=O)Cc1c[nH]c2ccccc12 [I3P, indole-3-pyruvic acid] | formed spontaneously from I3P, which was enhanced in the presence of H2O2 | significant regulation | 
 |  | O=C(O)C(=O)Cc1ccccc1 [PP, phenylpyruvic acid] |  | did not elicit relevant modulation | 
 |  | O=Cc1c[nH]c2ccccc12 [I3CA, indole-3-carboxaldehyde] |  |  | induced TIPARP transcripts
 |  | O=C(O)C(O)Cc1c[nH]c2ccccc12 (stereo not shown) [I3L, indole-3-lactic acid] |  |  | did not observe relevant induction
